{"source": "patent US20130331427A1", "about": "“METHODS OF STIMULATING CELLULAR GROWTH, SYNAPTIC, REMODELING AND CONSOLIDATION OF LONG-TERM MEMORY” (Blanchette Rockefeller Neuroscience Institute, priority 2007, published 2013)", "key": {"presynaptic markers": {"system": "presynaptic markers", "assay": "pre- and postsynaptic markers, quantitative confocal immunohistochemistry", "type": "in vivo, rat", "settings": "bryostatin alone", "source_text": "Water maze training increased the numbers of the dendritic spine marker spinophilin (FIG. 29; Panel B), postsynaptic membrane marker neurogranin (FIG. 29; Panels A and D), and presynaptic marker GAP-43 (Panels A and E), but not the axon bouton marker synaptophysin (FIG. 29; Panels A and B), as determined by quantitative confocal immunohistochemistry."}, "PKCα": {"biological_target": "T1, PKCα (Rattus norvegicus, UniProt P05696)", "T1 construct": "from tissue; host or cells: acute hippocampal slices", "type": "cell-based"}, "sAPP secretion": {"system": "sAPP secretion", "assay": "sAPP secretion with bryostatin-1", "type": "cell-based", "settings": "0.1 nM", "source_text": "Of particular interest are macrocyclic lactones (i.e. bryostatin class and neristatin class) that act to stimulate PKC. […] Bryostatin is currently in clinical trials as an anti-cancer agent. The bryostatins are known to bind to the regulatory domain of PKC and to activate the enzyme. […] (See, for example, WO 97/43268; incorporated herein by reference in its entirety)."}, "PKCδ": {"biological_target": "T2, PKCδ (Rattus norvegicus, UniProt P09215)", "T2 construct": "from tissue; host or cells: hippocampal slices", "T2 sequence (P09215 whole entry)": "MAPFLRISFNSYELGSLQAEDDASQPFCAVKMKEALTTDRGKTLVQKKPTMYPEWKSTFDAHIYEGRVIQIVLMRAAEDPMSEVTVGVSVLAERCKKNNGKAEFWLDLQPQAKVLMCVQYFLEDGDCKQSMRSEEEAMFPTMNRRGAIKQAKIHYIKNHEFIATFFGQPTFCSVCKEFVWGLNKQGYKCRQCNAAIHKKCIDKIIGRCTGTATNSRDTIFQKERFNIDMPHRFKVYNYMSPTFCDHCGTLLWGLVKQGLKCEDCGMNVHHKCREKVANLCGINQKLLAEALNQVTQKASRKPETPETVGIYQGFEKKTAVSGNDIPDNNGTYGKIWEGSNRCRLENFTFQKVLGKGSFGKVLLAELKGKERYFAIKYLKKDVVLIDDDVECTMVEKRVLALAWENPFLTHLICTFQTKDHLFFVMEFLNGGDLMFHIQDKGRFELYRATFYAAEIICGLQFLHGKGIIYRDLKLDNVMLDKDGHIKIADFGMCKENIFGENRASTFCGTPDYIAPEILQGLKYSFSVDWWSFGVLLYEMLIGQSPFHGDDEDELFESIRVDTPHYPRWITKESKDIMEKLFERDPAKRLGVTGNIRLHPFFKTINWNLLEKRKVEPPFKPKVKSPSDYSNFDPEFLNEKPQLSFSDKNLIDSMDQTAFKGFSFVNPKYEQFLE", "assay": "acute hippocampal slices, PKCδ activation", "type": "cell-based"}, "Hermissenda Crassicornis": {"system": "Hermissenda Crassicornis", "assay": "Pavlovian conditioning of Hermissenda, memory retention", "type": "in vivo", "procedure": "Specimens of Hermissenda Crassicornis were maintained in artificial sea water (ASW) at 15° for three days in perforated 50-ml conical centrifuge tubes before starting experiments. […] For selected experiments lactacysteine (10 μM) or anisomycin was added to the ASW.\nPavlovian conditioning of Hermissenda involves repeated pairings of a neutral stimulus, light, with an unconditioned stimulus, orbital shaking. (See, Lederhendler et al. (24) and Epstein et al. (6)). A rotation/shaking stimulus excites the statocyst hair cells and thereby elicits an unconditioned response: a brisk contraction of the muscular undersurface called a foot, accompanied by adherence or “clinging” to the surface that supports the foot. Before conditioning, light elicits a weakly positive phototaxis accompanied by lengthening of the foot. After sufficient light-rotation pairings, light no longer elicits phototaxis, but instead elicits a new response (24): the “clinging” and foot shortening previously elicited only by the unconditional stimulus (FIG. 1). Thus, the meaning of the unconditioned stimulus, rotation or orbital shaking, has been transferred to the conditioned stimulus and is manifested by a light-elicited foot contraction—a negative change of foot length. This conditioned response to light can last for weeks, is not produced by randomized light and rotation, is stimulus-specific, and shares the other defining characteristics of mammalian Pavlovian Conditioning.\nPavlovian conditioning of Hermissenda has well-defined training parameters that produce progressively longer-lasting retention of the learned conditioned response. Two training events (2 TE) of paired light and orbital shaking (see “Methods”), for example, induce a learned conditioned response (light-elicited foot contraction or shortening) that persists without drug treatment for approximately 7 minutes. Four to six training events (4-6 TE) induce a conditioned response that persists up to several hours, but disappears approximately by 1 day after training. Nine TE produces long-term associative memory lasting many days and often up to two weeks.\nAll animals were tested with the CS alone at 4 h, then at 24-h intervals."}, "calexcitin": {"system": "calexcitin", "assay": "calexcitin immunostaining in Hermissenda B-photoreceptors", "type": "in vivo", "procedure": "Following experimental treatments and testing, animals were rapidly decapitated, the central nervous systems (CNS) removed and then fixed in 4% para-formaldehyde in 20 mM Tris-buffered (pH 8) natural seawater (NSW; 0.2 μm micropore-filtered). The CNSs were then embedded in polyester wax (20), sectioned (6 μm) and immunostained using a biotinylated secondary antibody coupled to avidin-bound microperoxidase (ABC method, Vector), Aminoethylcarbazole (AEC) was used as the chromogen. The primary polyclonal antibody (designated 25U2) was raised in rabbits from the full length calexcitin protein extracted from squid optic lobes. Gray-scale intensity measures were done from digital photomicrographs on circumscribed cytoplasmic areas of the B-photoreceptors minus the same background area (non-staining neuropile).\nMicrographs (A, B) depict representative tissue sections from Hermissenda eyes that were immunolabeled with the calexcitin polyclonal antibody, 25U2. […] Differences in staining intensities were measured and recorded as gray-scale intensities (0-256; B-cell cytoplasm minus tissue background)."}, "PKC": {"system": "PKC", "assay": "PKC activity in cultured rat hippocampal H19-7/IGF-IR cells", "type": "cell-based", "procedure": "Cells were homogenized by sonication (5 sec, 25 W) in 100 μl of 100 mM Tris-HCL pH 7.4 buffer containing 1 mM EGTA, 1 mM PMSF, and 50 mM NaF. Homogenate was transferred to a polyallomer centrifuge tube and was centrifuged at 100,000×g for 10 min at 4°. The supernatant was removed and immediately frozen on dry ice. The particulate fraction was resuspended by sonication in 100 μl of the same buffer and stored at −80°. To measure PKC, 10 μl of cytosol or particulate fraction was incubated for 15 min at 37° in the presence of 10 μM histones, 4.89 mM CaCl2, 1.2 μg/μl phosphatidyl-L-serine, 0.18 μg/μl 1.2-dioctanoyl-sn-glycerol, 10 mM MgCl2, 20 mM HEPES (pH 7.4), 0-8 mM EDTA, 4 mM EGTA, 4% glycerol, 8 μg/ml aprotinin, 8 μg/ml leupeptin, and 2 mM benzamidine. 0.5 μCi [γ^32-P]ATP was added and ^32P-phosphoprotein formation was measured by adsorption onto phosphocellulose as described previously (25). This assay was used with slight adjustments for either Hermissenda nervous system homogenates or cultured mammalian neuron homogenates.\nRat hippocampal H19-7/IGF-IR cells (ATCC) were plated onto poly-L-lysine coated plates and grown at 35° in DMEM/10% FCS for several days until approx. 50% coverage was obtained. The cells were then induced to differentiate into a neuronal phenotype by replacing the medium with 5 ml N2 medium containing 10 ng/ml basic fibroblast growth factor and grown in T-25 flasks at 39° C. (26). […] After a specified interval, the medium was removed and the cells were washed with PBS, removed by gentle scraping, and collected by centrifugation at 1000 rpm for 5 min.\nThese differentiate to have a neuronal phenotype when induced by basic fibroblast growth factor in N2 medium (26) and express a normal complement of neuronal proteins, including PKC.\nBoth the initial PKC activation and subsequent downregulation have been previously described and were confirmed by measurement of PKC activity in membrane and cytosol."}, "[1]": {"settings": "single dose 0.28 nM for 30 minutes"}}, "note": "“Also recorded” adds a separate entry of the source."}
{"smiles": "CCC/C=C/C=C/C(=O)O[C@H]1/C(=C/C(=O)OC)C[C@H]2C[C@H]([C@@H](C)O)OC(=O)C[C@H](O)C[C@@H]3C[C@H](OC(C)=O)C(C)(C)[C@](O)(C[C@@H]4C/C(=C/C(=O)OC)C[C@H](/C=C/C(C)(C)[C@]1(O)O2)O4)O3", "note": "[bryostatin, bryostatin-1]", "values": [{"measurement": "number of presynaptic markers", "setting": "presynaptic markers", "value": "increased"}, {"measurement": "activation of PKCα", "setting": "PKCα", "value": "stimulates translocation to the plasma membrane; also recorded: selectively activated"}, {"measurement": "sAPP secretion", "setting": "sAPP secretion", "value": "dramatic increase of sAPP secretion"}, {"measurement": "activation of PKCδ", "setting": "PKCδ", "value": "but not PKCδ"}, {"measurement": "memory retention", "setting": "Hermissenda Crassicornis; 2 TE plus bryostatin 0.25 ng/ml for 4 h during and after training, minutes without", "value": "lasting hours"}, {"measurement": "memory retention", "setting": "Hermissenda Crassicornis; 4 TEs plus bryostatin 0.25 ng/ml for 4 h", "value": "> 24", "unit": "h"}, {"measurement": "retention", "setting": "Hermissenda Crassicornis; 20 h pre-exposure 0.25 ng/ml, 4-paired TE, at 48 h", "value": "persisted"}, {"measurement": "time by which retention was gone", "setting": "Hermissenda Crassicornis; 20 hr exposure 0.25 ng/ml, 2-paired TE", "value": "≤ 48", "unit": "h"}, {"measurement": "concentration that inhibited acquisition and behavioral retention", "setting": "Hermissenda Crassicornis; all training conditions tested", "value": "greater than 1.0 ng/ml"}, {"measurement": "memory after 2, 4, or 6 training trials", "setting": "Hermissenda Crassicornis; low doses (0.1-0.25 ng/ml)", "value": "markedly enhanced memory"}, {"measurement": "conditioned response", "setting": "Hermissenda Crassicornis; randomized presentations of light and rotation", "value": "no conditioned response"}, {"measurement": "time after which behavioral retention was lost", "setting": "Hermissenda Crassicornis; single 4 h exposure 0.25 ng/ml alone, 2-paired TEs 24 hrs later", "value": "≤ 24", "unit": "h"}, {"measurement": "concentrations that augment acquisition and memory retention", "setting": "Hermissenda Crassicornis; sub-optimal (4 TE) training", "value": "< 0.50", "unit": "ng/mL"}, {"measurement": "long-term retention (LTR) post-training", "setting": "Hermissenda Crassicornis; three successive days of 4-h exposure 0.25 ng/ml, 2-TEs one day later", "value": "≥ 96", "unit": "h"}, {"measurement": "long-term retention", "setting": "Hermissenda Crassicornis; two successive days of 4-h exposure 0.25 ng/ml, 2-paired TEs", "value": "at least 6 days"}, {"measurement": "CE immunostaining", "setting": "calexcitin; bryostatin alone, 24 hours after 1 exposure for four hours", "value": "not elevated"}, {"measurement": "CE immunostaining", "setting": "calexcitin; bryostatin alone, 24 hours after 2 exposures on two successive days", "value": "greater residual CE immunostaining"}, {"measurement": "CE immunostaining", "setting": "calexcitin; bryostatin plus 6 TE", "value": "comparable to that observed after 9 TE"}, {"measurement": "increase of calexcitin levels", "setting": "calexcitin; paired training (6PTE), bryostatin 0.25", "value": "greater than 4.3 ×"}, {"measurement": "rise in CE (calexcitin)", "setting": "calexcitin; random training (4RTE), bryostatin 0.25", "value": 2.0}, {"measurement": "calexcitin level", "setting": "calexcitin; two exposures on successive days 0.25 ng/ml, 2-paired TEs, vs 9-random TEs", "value": "significantly increased"}, {"measurement": "PKC activity, cytoplasmic fraction", "setting": "PKC; exposed twice within a 2-hour period", "value": "significant reduction"}, {"measurement": "membrane-bound PKC downregulation", "setting": "PKC; second 30-minute exposure after a 2- to 4-hour delay", "value": "eliminated the significant downregulation"}, {"measurement": "PKC activity, cytoplasmic fraction", "setting": "PKC; second exposure 4 hours after the first", "value": "increased above baseline"}, {"measurement": "membrane-bound PKC after the brief translocation", "setting": "PKC; [1]", "value": "prolonged downregulation"}, {"measurement": "translocation of PKC from the cytosol to the particulate fraction", "setting": "PKC; [1]", "value": "approx 60%"}, {"measurement": "PKC activity, cytoplasmic fraction", "setting": "PKC; within the first 4 hours after exposure", "value": "no significant alteration"}]}
